Legend:
Rattus norvegicus [1] = experiment: Local anesthetic activity in rat assessed as time duration of motor activity block at 0.25 % injected around sciatic nerve; type: functional
Rattus norvegicus [2] = experiment: Local anesthetic activity in rat assessed as frequency of motor activity block at 0.25 % injected around sciatic nerve; type: functional
Rattus norvegicus [3] = experiment: Local anesthetic activity in rat assessed as frequency of motor activity block at 0.50 % injected around sciatic nerve; type: functional
Rattus norvegicus [4] = experiment: Local anesthetic activity in rat assessed as frequency of motor activity block at 2 % injected around sciatic nerve; type: functional
Rattus norvegicus [5] = experiment: Local anesthetic activity in rat assessed as time duration of motor activity block at 2 % injected around sciatic nerve; type: functional
Rattus norvegicus [6] = experiment: Local anesthetic activity in rat assessed as time duration of motor activity block at 0.50 % injected around sciatic nerve; type: functional
Rattus norvegicus [7] = experiment: Local anesthetic activity in rat assessed as frequency of motor activity block at 1 % injected around sciatic nerve; type: functional
Rattus norvegicus [8] = experiment: Local anesthetic activity in rat assessed as time duration of motor activity block at 1 % injected around sciatic nerve; type: functional
[9] = Toxicity in ip dosed rat; type: organism-based; conditions: in vivo
Rattus norvegicus [10] = experiment: Local anesthetic activity in rat assessed as time duration of motor activity block at 0.125 % injected around sciatic nerve; type: functional
[11] = Ionization constant, pKa of the compound; type: physicochemical
Rattus norvegicus [12] = experiment: Local anesthetic activity in rat assessed as frequency of motor activity block at 0.125 % injected around sciatic nerve; type: functional

For CCN(CC)CC(=O)Nc1c(C)cccc1C [LIDOCAINE], the Time (Rattus norvegicus [1]) was 102 min, the Activity (Rattus norvegicus [2]) was 100% and the Activity (Rattus norvegicus [3]) was 100%. The Activity (Rattus norvegicus [4]) was 100%, the Time (Rattus norvegicus [5]) was 185 min and the Time (Rattus norvegicus [6]) was 123 min. For the same compound, the Activity (Rattus norvegicus [7]) was 100% and the Time (Rattus norvegicus [8]) was 162 min.

CCN(CC)C(C)C(=O)Nc1c(C)cccc1C (stereo unspecified) gave a Time (Rattus norvegicus [1]) of 92 min, an Activity (Rattus norvegicus [2]) of 100% and an LD50 [9] of 89 mg/kg. The Activity (Rattus norvegicus [3]) was 100%, the Time (Rattus norvegicus [10]) was 82 min and the Activity (Rattus norvegicus [4]) was 100%. The Time (Rattus norvegicus [5]) was 160 min, the Time (Rattus norvegicus [6]) was 104 min and the Activity (Rattus norvegicus [7]) was 100%. It also gave a pKa [11] of 8.12, an Activity (Rattus norvegicus [12]) of 100% and a Time (Rattus norvegicus [8]) of 114 min.

CCC(C(=O)Nc1c(C)cccc1C)N(CC)CC.Cl (stereo unspecified) showed a Time (Rattus norvegicus [1]) of 235 min, an Activity (Rattus norvegicus [2]) of 100% and an LD50 [9] of 54 mg/kg. For the same compound, the Activity (Rattus norvegicus [3]) was 100%, the Time (Rattus norvegicus [10]) was 156 min and the Activity (Rattus norvegicus [4]) was 100%. For the same compound, the Time (Rattus norvegicus [5]) was 318 min, the Time (Rattus norvegicus [6]) was 297 min and the Activity (Rattus norvegicus [7]) was 100%. The pKa [11] was 7.91, the Activity (Rattus norvegicus [12]) was 100% and the Time (Rattus norvegicus [8]) was 308 min.

In the case of CCCCC(C(=O)Nc1c(C)cccc1C)N(CC)CC.Cl (stereo unspecified), the Time (Rattus norvegicus [1]) is reported as 111 min, the Activity (Rattus norvegicus [2]) is reported as 60% and the LD50 [9] is reported as 44 mg/kg. For the same compound, the Activity (Rattus norvegicus [3]) was 100%, the Time (Rattus norvegicus [10]) was 92 min and the Activity (Rattus norvegicus [4]) was 80%. The Time (Rattus norvegicus [5]) was 246 min, the Time (Rattus norvegicus [6]) was 119 min and the Activity (Rattus norvegicus [7]) was 100%. The pKa [11] was 7.81, the Activity (Rattus norvegicus [12]) was 80% and the Time (Rattus norvegicus [8]) was 196 min.

For CCCC(C(=O)Nc1c(C)cccc1C)N(CC)CC.Cl (stereo unspecified), the Time (Rattus norvegicus [1]) was 123 min, the Activity (Rattus norvegicus [2]) was 100% and the LD50 [9] was 51 mg/kg. The Activity (Rattus norvegicus [3]) was 100%, the Time (Rattus norvegicus [10]) was 117 min and the Activity (Rattus norvegicus [4]) was 100%. The Time (Rattus norvegicus [5]) was 268 min, the Time (Rattus norvegicus [6]) was 140 min and the Activity (Rattus norvegicus [7]) was 100%. For the same compound, the pKa [11] was 7.89, the Activity (Rattus norvegicus [12]) was 100% and the Time (Rattus norvegicus [8]) was 179 min.
